Here are results for three molecules from patent US20250241890A1, “1,4-DIUREAS AND 1,4-DITHIOUREAS AND USES THEREOF” (Purdue Research Foundation, priority 2024, published 2025).

The structures appear in SMILES notation.

Series [1] has as its target T1, tau isoform 0N4R (Homo sapiens, UniProt P10636).
T1 construct: made in house; host or cells: Rosetta BL21 E. coli
The experiment in a line: PICUP assay of tau 0N4R oligomer formation. The format is biochemical. Particulars: tau 10 μM, compound 50 μM (molar ratio 1:5). The procedure: FIG. 5. […] Compounds 1, 2, and 8 were selected for their α-syn anti-oligomerization activity. Compound 7 was used as di-urea counterpart of compound 8, as compound 1 is the di-urea counterpart of compound 2, a dithiourea derivative. Tau (10 μM) was cross-linked (PICUP assay) with different concentrations of the di-substituted aminoindolyl derivatives at 50 μM (molar ratio 1:5).
Chemical and peptide source. Dimethylsulfoxide (DMSO) and thioflavin-T (ThT) were purchased from Alfa Aesar (Ward Hill, MA). Recombinant α-synuclein (α-syn) was procured from rPeptide (WatKinsville, GA). The recombinant p-tau isoform 1N4R was prepared as published previously (Fortin et al. 2021, Sui et al. 2015, Liu et al. 2020). Concerning the preparation of tau 0N4R, a bacterial expression plasmid consisting of the vector pET30a carrying a cDNA encoding the human Tau 0N4R isoform was a kind gift of Dr. Benjamin Wolozin (Boston University). E. coli stock (Rosetta BL21 E. coli (CamR) containing pET30a [0N4R tau wt] (KanR)) was grown in LB medium supplemented with kanamycin (50 μg/mL) and chloramphenicol (50 μg/mL). […] General Characterizations. ^1H and ^13C {1H} NMR spectra were recorded using a 500 MHz Bruker instrument working at a frequency of 500 MHz for ^1H and at 126 MHz for ^13C. […] Thioflavin fluorescence assays. Thioflavin fluorescence assays were used to monitor fibril formation of commercial recombinant α-syn at a final concentration of 2 μM and treated with control DMSO and different compounds. […] Kinetics of fibril formation have been performed using ThT as published previously.^6, 12, 13, 24 The fluorescence emission experiments were performed with the excitation and emission wavelengths set at 440 and 485 nm, respectively, with a Synergy HT multi-mode microplate reader (BioTek, Winooski, VT). Samples were measured in three replicates. […] For each time point, arbitrary units of fluorescence were calculated from the mean values normalized against the maximum value. The percentage of fluorescence intensity at the plateau phase in Table 1 was expressed as mean #SEM. […]

In series [2] the test system is neuroblastoma cells (SH-SY5Y). The experiment in a line: Crystal violet staining cytotoxicity. The format is cell-based, human. Particulars: four days. The procedure:
The cytotoxicity of compounds 1 and 2 was assessed using human neuroblastoma cells (SH-SY5Y). Employing the crystal violet staining method, determination of the optical density was used to reflect on the percentage of cells attached to each well (6-well plate format) after treatment with control DMSO (0.14) and compound concentrations at 5 and 10 μM. Treated cells were incubated at 37° C. with 5% CO2 for four days. […] Compound 2 was also non cytotoxic at higher concentration, i.e., 10 μM. Differences were not statistically significant at […] via one-way analysis of variance ANOVA with post-test (Dunnett's multiple comparison test).

In series [3] the test system is neuroblastoma cells (SH-SY5Y). The experiment in a line: MTT cytotoxicity. In kind it is cell-based, human. Particulars: for cell survival, MTT, difference to DMSO control: 20 μM, 48 hours; for cytotoxicity, MTT: 5 or 10 μM, 24 hours. The procedure: MTT (3-(4,5-Dimethylthiazol-2-yl)-2,5-diphenyltetrazolium bromide) is a tetrazolium salt that is commonly used to detect reductive metabolism in cells for viability, proliferation and cytotoxicity assays. MTT was utilized in order to evaluate metabolic cellular toxicity of compounds 1, 2, and DMSO (vehicle) using human neuroblastoma cells (SH-SY5Y). Cells were diluted in cellular media in order to obtain ˜500,000 cells per condition and grown for 8-12 hours prior treatment. Cellular media (see the material and method section below) was then removed. The cells were then treated with compounds 1 or 2 at 20 μM or DMSO control at 0.05% (FIG. 9) diluted in cellular media followed by an additional incubation of 48 hours. Cellular media was removed, and the cells were treated with 50% MTT in cellular media for 2 hours at 37° C. followed by detergent solution. Differences were considered non-significant (at p<0.05) (FIG. 9) based on the one-way analysis of variance (ANOVA) without post-test performed with GraphPad Prism (version 5).
MTT assay was performed once again with compounds 1 and 2 and DMSO control at 5 and 10 μM. Each well contained ˜500,000 cells (6-well plate) prepared 8-12 hours prior to treatment. The cells were treated for 24 hours, and then MTT method was applied to assess cell survival. […] No differences were detected at p<0.001 using the one-way analysis of variance (ANOVA) with Dunnett's multiple comparison test.

Series [4] deals with T2, p-tau isoform 1N4R (Homo sapiens, UniProt P10636).
T2 construct: made in house
T2 sequence (P10636 1-412 isoform P10636-7): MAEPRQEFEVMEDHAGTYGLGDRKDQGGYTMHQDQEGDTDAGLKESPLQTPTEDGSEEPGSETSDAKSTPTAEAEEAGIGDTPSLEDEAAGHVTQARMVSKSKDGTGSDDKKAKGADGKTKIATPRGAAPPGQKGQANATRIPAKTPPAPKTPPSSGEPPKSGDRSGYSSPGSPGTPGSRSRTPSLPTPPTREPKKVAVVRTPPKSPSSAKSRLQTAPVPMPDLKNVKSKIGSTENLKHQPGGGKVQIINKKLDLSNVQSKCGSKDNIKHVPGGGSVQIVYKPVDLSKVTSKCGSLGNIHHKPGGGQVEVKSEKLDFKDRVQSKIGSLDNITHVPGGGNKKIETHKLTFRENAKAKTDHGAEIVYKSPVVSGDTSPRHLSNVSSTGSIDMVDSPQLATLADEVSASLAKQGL
The experiment in a line: PICUP assay of p-tau 1N4R oligomer formation. In kind it is biochemical. Particulars: p-tau 4 μM, compound 50 μM (molar ratio 1:12.5).

In series [5] the target is T3, α-syn fibrils (Homo sapiens, UniProt P37840).
T3 construct: purchased rPeptide (Watkinsville, GA)
The series is described as follows: Transmission electron microscopy (TEM) of α-syn fibrils. Particulars: α-syn 2 μM, compound 100 μM, ~22 hours at 37° C. In kind it is biochemical.

T1 sequence (P10636 1-383 isoform P10636-6): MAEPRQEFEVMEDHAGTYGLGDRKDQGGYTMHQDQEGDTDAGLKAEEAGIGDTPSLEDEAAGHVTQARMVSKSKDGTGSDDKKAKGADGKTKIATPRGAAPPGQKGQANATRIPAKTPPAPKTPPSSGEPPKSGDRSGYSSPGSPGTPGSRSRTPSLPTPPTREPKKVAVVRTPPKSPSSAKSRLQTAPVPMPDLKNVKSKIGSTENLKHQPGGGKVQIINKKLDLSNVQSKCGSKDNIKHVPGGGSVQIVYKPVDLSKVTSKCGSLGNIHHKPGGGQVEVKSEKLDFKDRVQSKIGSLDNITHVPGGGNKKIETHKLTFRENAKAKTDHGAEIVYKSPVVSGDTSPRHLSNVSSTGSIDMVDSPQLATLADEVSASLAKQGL

As for `S=C(Nc1ccc(NC(=S)Nc2cccc3cc[nH]c23)cc1)Nc1cccc2cc[nH]c12` [Compound 8, 3-(1H-indol-7-yl)-1-(4-{[(1H-indol-7-yl)carbamothioyl]amino}phenyl)thiourea], the “effect on tau 0N4R oligomer formation by PICUP” value in series [1] is recorded as “None of these compounds were able to reduce the tau 0N4R oligomer formation”.

For the molecule `O=C(Nc1ccc(NC(=O)Nc2cccc3[nH]ccc23)cc1)Nc1cccc2[nH]ccc12` [Compound 1, 3-(1H-indol-4-yl)-1-(4-{[(1H-indol-4-yl)carbamoyl]amino}phenyl)urea], in series [2] (5 μM), the “cytotoxicity, crystal violet staining” value is listed as “non cytotoxic”. Moreover, in series [3], the “cell survival, MTT, difference to DMSO control” value is listed as “non-significant” and the “cytotoxicity, MTT” value was “did not induce cytotoxicity”.

On to `S=C(Nc1ccc(NC(=S)Nc2cccc3[nH]ccc23)cc1)Nc1cccc2[nH]ccc12` [Compound 2, 3-(1H-indol-4-yl)-1-(4-{[(1H-indol-4-yl)carbamothioyl]amino}phenyl)thiourea], for which the “effect on p-tau 1N4R oligomer formation by PICUP” value in series [4] is on record as “failed to inhibit p-tau oligomer formation”. Further, the “cytotoxicity, crystal violet staining” value in series [2] (5 μM) was “non cytotoxic”. Further, in series [2] (10 μM), the “cytotoxicity, crystal violet staining” value was “non cytotoxic”. In addition, in series [5], the “effect on α-syn fibrils by TEM” value is given as “reduced α-syn fibril formation”. In addition, in series [3], the “cell survival, MTT, difference to DMSO control” value is on record as “non-significant” and the “cytotoxicity, MTT” value was “did not induce cytotoxicity”. Also, the “effect on tau 0N4R oligomer formation by PICUP” value in series [1] is recorded as “None of these compounds were able to reduce the tau 0N4R oligomer formation”.
